Data from patent US11344634B2, “Activity based probe and uses thereof for imaging” (Yissum Research Development Company of the Hebrew …, priority 2016, dated 2022).

Legend:
[1] = molecular target: T1, Recombinant human Cathepsin B (Homo sapiens, UniProt P07858); experiment: Recombinant cathepsin labeling, competition assay, iodinated probes; type: biochemical; details: probe 2 hour, then GB123 30 minutes
T1 construct: made in house
Protocol: (§1) Recombinant cathepsin labeling, competition assay: Recombinant human Cathepsin L (0.5 μg), Cathepsin B (0.5 μg) were incubated the indicated concentrations of targeted or control iodinated activity based probes (CT-ABP) in reaction buffer (50 mM acetate, 2 mM DTT and 5 mM MgCl2, pH 5.5) for 120 minutes at 37° C. After probe incubation, residual cathepsin activity was labeled with GB123 for 30 minutes. The reaction was stopped by addition of sample buffer ×4 (40% glycerol, 0.2 M Tris/HCl, pH 6.8, 20% beta-mercaptoethanol, 12% SDS and 0.4 mg/ml bromophenol blue). Samples were then boiled, separated on a 12.5% SDS gel and scanned for fluorescence by a Typhoon scanner FLA 9500 at excitation/emission wavelengths of 645/670 nm.
(§2) The biochemical evaluation of the new probes started with evaluation for their ability to bind recombinant human cathepsins B or Cathepsin L. Recombinant human cathepsins B was incubated with increasing concentrations of the probes for 2 hour. Residual activity was detected by a fluorescently labeled cathepsin ABP GB 123 that was added to samples for 30 minutes at r.t. […] Next, residual cathepsins activity was labeled by GB123 1 μM during 2 hours. Cell lysates were separated on SDS-PAGE followed by scanning the gel for fluorescence to visualize labeling of residual cathepsins activity by GB123 (FIGS. 11C and 11F).
(§3) Recombinant human cathepsins B was incubated with increasing concentrations of the probes for 2 hour. Residual activity was detected by a fluorescently labeled cathepsin ABP that was added to samples for 30 minutes at r.t. The free probe was separated from the enzyme-probe complex by SDS PAGE, the detection of the probe-enzyme complex was done by a fluorescent scanning of the gel at Cy5 fluorescence, FIG. 12. […] To assure that the binding is dependent on protease activity, a control were performed HG87, HG94 and HG97 lacking the reactive moiety. […] Evaluation of I-CT-ABPs in intact cells. […] Next, residual cathepsins activity was labeled by GB123 1 μM during 2 hours. Cell lysates were separated on SDS-PAGE followed by scanning the gel for fluorescence at: 645/670 nm to visualize labeling of residual cathepsins activity by GB123 (FIG. 12E). […] Recombinant human cathepsins B was incubated with increasing concentrations of the Cy5 labelled probes for 2 hour. The free probe was separated from the enzyme-probe complex by SDS PAGE, the detection of the probe-enzyme complex was done by a fluorescent scanning of the gel at Cy5 fluorescence. […] The binding of the all the Cy5 labelled probes occur in an activity-dependent manner. Direct labeling in intact cells. The assay was carried out by incubation of NIH-3T3 cells with Cy5 labelled iodine tagged probes for 24 hours. Cell lysates were separated on SDS-PAGE followed by scanning the gel for fluorescence at: 645/670 nm to visualize labeling of residual cathepsins activity by GB123. […] For the PEGylated I-CT-ABP HG93 and HG32 also observed that recombinant cathepsin activity and cell permeability, it's difficult to quantify the selective inhibition due to enhanced permeation and retention (EPR) effect.

[2] = molecular target: T2, Recombinant human Cathepsin L (Homo sapiens, UniProt P07711); experiment: as above; type: biochemical; details: probe 2 hour, then GB123 30 minutes
T2 construct: made in house
T2 sequence (P07711 114-333): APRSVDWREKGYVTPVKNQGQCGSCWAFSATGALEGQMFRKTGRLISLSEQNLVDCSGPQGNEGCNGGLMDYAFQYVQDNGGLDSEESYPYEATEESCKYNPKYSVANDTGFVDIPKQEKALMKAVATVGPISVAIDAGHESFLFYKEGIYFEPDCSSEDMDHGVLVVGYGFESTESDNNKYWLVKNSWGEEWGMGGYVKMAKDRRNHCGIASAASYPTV
Protocol: as §1, §2, §3

[3] = system: NIH-3T3 cells; experiment: In vitro cytotoxicity, methylene blue assay, I-CT-ABPs; type: cell-based, mouse; details: NIH-3T3, 10 μM, 48 hours
Protocol: In vitro Cytotoxicity Assays. Methylene Blue assays were performed in 96-well plates; NIH-3T3 cells (5×10^3 cells/well) were seeded in a 96-well plate one day before treatment. Cells were treated with indicated concentrations of targeted IABNs and non-targeted nanomaterials that were pre-dissolved in 0.1% DMSO in the culture medium. Cells were incubated for 24 h and 48 h and cells were fixed with 2.5% glutaraldehyde incubation for 10 min. Cells were washed with water and borate buffer (0.1M, pH=8.5), Cell number was determined by staining cells with the addition of 100 μl per well of 1% Methylene Blue in borate buffer, followed by incubation at room temperature for at least 1 hour. The stain was aspirated and the plates rinsed by immersion in water, followed by immersion in deionized water. The plates were air-dried and then the stain was released from cells by the addition of 200 μl/well 0.1 N HCl solutions. After 1 hour incubation at 37° C., the absorbance of each […] at 620 nm was determined on a Cytation 3 microplate reader.
Cytotoxicity study of the I-CT-ABPs, the toxic response to the systematically varied physico-chemical properties of successive PAMAM dendrimers. In vitro cytotoxicity of I-CT-ABPs to NIH-3T3 cell lines was investigated. Viability assay was performed for assessment of the cytotoxicity of each I-CT-ABP to the NIH-3T3 cell lines using the methylene blue method.

Row | binding to recombinant cathepsin B, competitive assay [1] | binding to recombinant cathepsin L, competitive assay [2] | Substance | toxicity (viability assay) [3]
1 | no inhibition was detected | no inhibition was detected | (IPA)16(PEG-750)16-G3 [HG97] | 
2 | no inhibition was detected | no inhibition was detected | (IPA)16(NH2)16-G3 [HG87] | slight toxicity
3 | no inhibition was detected | no inhibition was detected | (IPA)16(PEG-4)16-G3 [HG94] | 
